This note sets out measurements from ChEMBL document CHEMBL1201862, “PubChem BioAssay data set” (2004).

Test systems include HOP-62; SK-MEL-5; MDA-N; RXF 393; SK-MEL-2; A549; SNB-19; UACC-257; 786-0; M14; U-251; OVCAR-5; DU-145; HT-29; SN12C; NCI/ADR-RES; OVCAR-8; SF-295; EKVX; Hs-578T.
Test in all cases: growth of human tumour cells (NCI), 48 h

SMILES strings stand for the structures.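 Where inhibition never reached the appropriate level, the endpoint shown equals the highest concentration tested. Otherwise, values were interpolated linearly from a five-concentration, 48-hour dose response in 96-well plates. Abbreviation: GI50, concentration required for 50% inhibition of growth.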 Activity calls are given as the source filed them. Rule as the data show it: active = GI50 up to about 1.1 µM and inactive = higher.

Take `O=C1CCC(C(=O)O)C2=C1CCCC2` (configuration not stated): the GI50 in the test with HOP-62 was > 16.4 µM (inactive); with SK-MEL-5 it was > 56.1 µM (inactive); in the test with MDA-N, > 100 µM (inactive); in the test on RXF 393 it was > 100 µM (inactive); in the test on SK-MEL-2, > 100 µM (inactive); in the test on A549 it was > 34 µM (inactive). The GI50 with SNB-19 was > 36.2 µM (inactive); in the test on UACC-257, > 100 µM (inactive); in the test on 786-0, > 28.6 µM (inactive); with M14, > 100 µM (inactive); with U-251, > 15.7 µM (inactive); in the test on OVCAR-5 it was > 21.5 µM (inactive). Moreover, the GI50 in the test on DU-145 was > 100 µM (inactive); in the test with HT-29, > 100 µM (inactive); with SN12C, > 100 µM (inactive); with NCI/ADR-RES it was > 100 µM (inactive); with OVCAR-8 it was > 100 µM (inactive); with SF-295 it was > 36.1 µM (inactive). The GI50 in the test with EKVX and in the test with Hs-578T was > 100 µM (inactive) each time.

In the case of `CC(N)/C(N)=N/O` (configuration not stated), the GI50 in the test on HOP-62, with SK-MEL-5, with MDA-N, in the test with RXF 393, with SK-MEL-2 and with A549 was > 100 µM (inactive) in each case. In addition, the GI50 in the test on SNB-19, in the test with UACC-257, in the test on 786-0, with M14, with U-251 and in the test on OVCAR-5 was > 100 µM (inactive) each time. In addition, the GI50 in the test on DU-145, in the test on HT-29, with SN12C, with NCI/ADR-RES, with OVCAR-8 and with SF-295 was > 100 µM (inactive) each time. The GI50 in the test with EKVX and in the test on Hs-578T was > 100 µM (inactive) in each case.

For the compound `c1ccc(CCCCNCc2cc(CNCCCCc3ccccc3)cc(CNCCCCc3ccccc3)c2)cc1`, the GI50 with HOP-62 was 1.75 µM (inactive); in the test with SK-MEL-5, 1.81 µM (inactive); with MDA-N it was 2.36 µM (inactive); in the test on RXF 393 it was 1.31 µM (inactive); with SK-MEL-2, 1.82 µM (inactive); with A549 it was 0.263 µM (active). Further, the GI50 is 0.714 µM (active) in the test on SNB-19; 0.859 µM (active) with UACC-257; 1.31 µM (inactive) in the test on 786-0; 0.556 µM (active) with M14; 1.12 µM (inactive) in the test on U-251; 1.7 µM (inactive) in the test on OVCAR-5. Besides, the GI50 in the test on DU-145 is 0.762 µM (active); with HT-29 it was 1.02 µM (active); with SN12C, 3.63 µM (inactive); with NCI/ADR-RES, 0.76 µM (active); in the test with OVCAR-8 it was 0.782 µM (active); with SF-295, 1.81 µM (inactive). In addition, the figures for the GI50 in the test on EKVX and in the test on Hs-578T were 1.64 µM (inactive) and 1.5 µM (inactive), respectively.

For the compound `COc1ccc2c(C)cc(N/N=C/c3ccc(C)s3)nc2c1`, the GI50 in the test with HOP-62 was 18.7 µM (inactive); in the test with SK-MEL-5 it was 3.43 µM (inactive); in the test with MDA-N, 10.4 µM (inactive); with RXF 393, 14.3 µM (inactive); with SK-MEL-2, 19.1 µM (inactive); in the test with A549 it was 7.91 µM (inactive). The GI50 in the test on SNB-19 is 25.4 µM (inactive); in the test on UACC-257, 11 µM (inactive); with 786-0, 5.89 µM (inactive); with M14 it was 6.55 µM (inactive); with U-251 it was 13.7 µM (inactive); with OVCAR-5, 12.6 µM (inactive). For the same compound, the GI50 in the test on DU-145 is 6.49 µM (inactive); with HT-29, 3.21 µM (inactive); in the test with SN12C, 11.9 µM (inactive); in the test on NCI/ADR-RES, 9.82 µM (inactive); in the test with OVCAR-8 it was 15.2 µM (inactive); in the test with SF-295, 9.62 µM (inactive). Further, the GI50 with EKVX was 5.4 µM (inactive); with Hs-578T it was 31.6 µM (inactive).

On to `C/C=C(\C)CC/C=C/CO[Si](C)(C)C(C)(C)C`, for which the GI50 in the test on HOP-62 was > 100 µM (inactive); in the test with SK-MEL-5, > 100 µM (inactive); with MDA-N it was > 100 µM (inactive); with RXF 393 it was > 100 µM (inactive); in the test with SK-MEL-2, 35.4 µM (inactive); in the test with A549, 39.4 µM (inactive). Also, the GI50 with SNB-19 was > 100 µM (inactive); with UACC-257 it was 69 µM (inactive); in the test with 786-0 it was > 100 µM (inactive); in the test with M14, > 100 µM (inactive); in the test with OVCAR-5, > 100 µM (inactive); in the test with DU-145, > 100 µM (inactive). Moreover, the GI50 in the test with HT-29 is 42.5 µM (inactive); in the test with SN12C, > 100 µM (inactive); in the test on NCI/ADR-RES, > 100 µM (inactive); with OVCAR-8, > 100 µM (inactive); in the test with SF-295 it was 79.1 µM (inactive); with EKVX it was > 100 µM (inactive). For the same compound, the GI50 in the test on Hs-578T was > 100 µM (inactive).

In the case of `Cc1ccc(S(=O)(=O)NC(=O)NC(Cc2c[nH]c3ccccc23)C(=O)O)cc1` (configuration not stated), the GI50 with HOP-62, with SK-MEL-5, in the test with MDA-N, with RXF 393, with SK-MEL-2 and with A549 was > 100 µM (inactive) in each case. The GI50 with SNB-19, with UACC-257, with 786-0, in the test with M14, in the test with U-251 and in the test on OVCAR-5 was > 100 µM (inactive) in each case. The GI50 in the test on DU-145, in the test with HT-29, in the test with SN12C, in the test with NCI/ADR-RES, in the test with OVCAR-8 and in the test on SF-295 was > 100 µM (inactive) each time. Besides, in the test with Hs-578T, the GI50 is > 100 µM (inactive).

In the case of `COc1ccc(-c2csc(Cc3nc4ccccc4c(=O)n3-c3ccc(Cl)cc3)n2)cc1`, the GI50 in the test with HOP-62 was > 100 µM (inactive); with SK-MEL-5, 19.3 µM (inactive); in the test on MDA-N, 22.7 µM (inactive); in the test with RXF 393 it was > 100 µM (inactive); in the test with SK-MEL-2, 17.8 µM (inactive); in the test on A549, 22.7 µM (inactive). The GI50 was 24.4 µM (inactive) in the test with SNB-19; 51.1 µM (inactive) in the test with UACC-257; 28.6 µM (inactive) in the test on 786-0; 21.7 µM (inactive) with M14; 32.2 µM (inactive) in the test on U-251; 23.9 µM (inactive) with OVCAR-5. Besides, the GI50 is 84.5 µM (inactive) with DU-145; 35.6 µM (inactive) in the test with HT-29; 56.1 µM (inactive) in the test on NCI/ADR-RES; 57.7 µM (inactive) in the test with OVCAR-8; 50.4 µM (inactive) with SF-295; 18.2 µM (inactive) with EKVX. Besides, the GI50 with Hs-578T was > 100 µM (inactive).
